Reference: patent US6791014B2, “Use of HPPD inhibitors as selection agents in plant transformation” (Aventis Cropscience, S.A., priority 2000, dated 2004)

Legend:
Type in all cases: cell-based, soya bean (Glycine max (L.) Merrill)
[1] = system: soya bean embryogenic tissues; assay: Bleaching and growth of soya bean embryogenic tissues on medium with HPPD inhibitor; settings: tissues transferred for selection on isoxaflutole, D20 medium, 2 mg/l
Procedure: The same selection method was developed for the HPPD inhibitors, with a D20 medium comprising 2 mg/l of isoxaflutole or 0.5 to 5 mg/l of diketonitriles. The gene for tolerance to HPPD inhibitors which was used as a selection marker is pCH73 or pCH94 represented in FIG. 1. 10 to 15 days prior to the bombardment, the isoxaflutole or the diketonitriles are introduced into the D20 medium, at the abovementioned concentrations, so as to bleach the tissues. After bombardment, the tissues are placed directly in the same D20 medium comprising […] of isoxaflutole or diketonitrile (between 0.5 and 5 mg/l) and transferred into fresh medium every 15 days. After 4 transfers onto the isoxaflutole. green calluses are identified and amplified as described in Example 1. The time required for producing calluses of cells which are competent for the bombardment is 3 and a half months. The selection of the transformed cells (green calluses) occurs approximately 6 months after the initiation of the calluses for the transformation. […] This is due to the fact that the absence of carotenoids, of chlorophyll and of tocopherols is […] to the growth of tissues.

[2] = system: soya bean proliferative embryogenic tissues; assay: Transformation of soya bean embryogenic tissues by particle bombardment, HPPD inhibitor selection on D20 medium (green calluses); settings: bleaching before bombardment
From the text: The technology used for transforming soya bean has been described by Santarem & Finer: Transformation of soya bean (Glycine max (L.) Merrill) using proliferative embryogenic tissue maintained on semi-solid medium. In Vitro Cell. Dev. Biol. Plant 35 451-455, 1999. It comprises the steps hereinafter.
Immature zygotic embryos (from 3 to 4 mm) are aseptically dissected and placed with the adaxial side upwards in a medium comprising 2.4D (D40).
After culturing for 3 weeks in D40 medium, the cotyledons are transferred onto a D20 medium which comprises essentially the same elements as the D40 medium, with the exception of the 2.4D concentration, which is decreased to […], and the sucrose concentration, which is decreased from 60 g/l to 30 g/l, at pH 5.7.
On this medium, the somatic embryos begin to proliferate in the form of compact aggregates or clumps. The embryogenic clumps are then transferred every two weeks onto a new D20 medium in order to increase the production of tissues. Five or six transfers (approximately 3 months) onto this medium are necessary in order to optimize their competence at transformation. The use of embryogenic tissues which are at an earlier stage produces much poorer results.
Particle bombardment is used for transforming the embryogenic tissues.
Particle preparation: flnctionalized tungsten (M17) particles are prepared according to U.S. Pat. No. 6,068,980. The particles are functionalized by grafting aminated silicones as the vectorization element, and washed in absolute ethanol. 2.5 mg of particles in ethanol are mixed with 3 μg of DNA. After precipitation, the particles are pipetted and used for two shots with a particle gun of the PIG type described by Finer, Vain, Lones and McMullen in: Development of the Particle Inflow Gun for DNA delivery to plant cells. Plant Cell Rep. 11: 323-328, 1992.
Before the bombardment, the tissues are dried under vacuum under a laminar-flow hood for 5 to 10 min, and then placed between two 500 μm screens and bombarded twice.
The same selection method was developed for the HPPD inhibitors, with a D20 medium comprising 2 mg/l of isoxaflutole or 0.5 to 5 mg/l of diketonitriles. The gene for tolerance to HPPD inhibitors which was used as a selection marker is pCH73 or pCH94 represented in FIG. 1.
In order to avoid handling tissues and to gain time, the bombarded calluses are placed on sterile gauze screen fixed with two metal rings which enable direct contact between the embryogenic tissues and the solid medium. The gauze screens are transferred onto fresh media every 15 days until green calluses are observed. It is understood that the principle of callus transfer described above is not limited to soya bean calluses and to selection with hygromycin, but may be used for any method for culturing tissues and cells suspensions which requires frequent changing of culture medium.
10 to 15 days prior to the bombardment, the isoxaflutole or the diketonitriles are introduced into the D20 medium, at the abovementioned concentrations, so as to bleach the tissues. After bombardment, the tissues are placed directly in the same D20 medium comprising […] of isoxaflutole or diketonitrile (between 0.5 and 5 mg/l) and transferred into fresh medium every 15 days. After 4 transfers onto the isoxaflutole. green calluses are identified and amplified as described in Example 1. The time required for producing calluses of cells which are competent for the bombardment is 3 and a half months. The selection of the transformed cells (green calluses) occurs approximately 6 months after the initiation of the calluses for the transformation.

[3] = system: soya bean proliferative embryogenic tissues; assay: Transformation of soya bean embryogenic tissues by particle bombardment, HPPD inhibitor selection on FNL medium (green calluses); settings: for mean number of green calluses selected per transformation trial: bleached tissues according to the invention, pooled over both plasmids
From the text: In order to improve the selection process according to the invention, an attempt was made to decrease the number of tissue transfers and the time required for producing calluses of competent cells and green calluses selected after bombardment. To this effect, the D20 medium previously used was replaced with a modified FNL medium which allows rapid proliferation of the tissues. The FNL medium has been described by Samoylov, Tucker, Thibaud-Nissen & Parrott in: A liquid-medium-based protocol for rapid regeneration from embryogenic soya bean cultures: Plant Cell Rep, 18: 49-54, 1998. This medium makes it possible to produce tissues ready for bombardment more rapidly, greater embryogeny and shorter transfer cycles. Composition of the FNL medium: Na2EDTA: 37.24 mg/l; FeSO4, 7H2O: 27.84 mg/l; MgSO4, 7H2O: 370 mg/l; MnSO4. H2O: 16.9 mg/l; ZnSO4, H2O: 8.6 mg/l; CuSO4. 7H25O: 0.025 mg/l; CaCl2. 2H2O: 440 mg/l; KI: 0.83 mg/l; CoCl2. 6H2O: 0.025 mg/l; KH2PO4: 170 mg/l; H3BO3: 6.2 mg/l; Na2MoO4. 2H2O: 0.25 mg/l; myo-inositol: 100 mg/l; nicotinic acid: 1 mg/l; pyridoxine-HCl: 1 mg/l; thiamine-HCl: 10 mg/l; (NH4)2SO4: 460 mg/l; KNO3: 2820 mg/l; asparagine: 670 mg/l; 1% sucrose; 2.4-D: 10 mg/l; 0.3% […]; pH 5.7. […] The bombardment of tissues bleached with isoxaflutol according to the invention requires only one transfer of calluses before the selected green calluses are produced, against 4 when using the D20 medium. The time required for producing calluses from cells which are competent for the bombardment is 2 months, the transformed green calluses being selected approximately 3 months after the initiation of the calluses for transformation.

[4] = system: soya bean proliferative embryogenic tissues; assay: Transformation of soya bean embryogenic tissues by particle bombardment, HPPD inhibitor selection on D20 medium (green calluses); settings: bleaching after bombardment
[5] = bleaching before bombardment, attempt 1
[6] = bleaching before bombardment, attempt 2
[7] = bleaching before bombardment, attempt 3

| Molecule | bleaching of the tissues [1] | inhibition of growth of the tissues [1] | number of green calluses identified ([2]; attempt 1) | number of green calluses identified ([2]; attempt 2) | number of green calluses identified ([2]; attempt 3) | mean number of green calluses selected per transformation trial [3] [per shot] | number of green calluses selected ([3]; bleaching after bombardment, attempt 1) | number of green calluses selected ([3]; bleaching after bombardment, attempt 2) | number of green calluses selected [3, 5] | number of green calluses selected [3, 6] | number of green calluses selected [3, 7] | number of green calluses identified ([4]; attempt 1) | number of green calluses identified ([4]; attempt 2) | number of green calluses identified ([4]; attempt 3) | number of green calluses selected ([3]; bleaching before bombardment, attempt 4) |
| --- | --- | --- | --- | --- | --- | --- | --- | --- | --- | --- | --- | --- | --- | --- | --- |
| CS(=O)(=O)c1cc(C(F)(F)F)ccc1C(=O)c1cnoc1C1CC1 [isoxaflutole] | rapidly bleached | without any inhibition of growth being observed |  |  |  |  |  |  |  |  |  |  |  |  |  |
| pCH73: plasmid carrying gene for tolerance to HPPD inhibitors: sunflower RuBisCo ssu promoter, optimized transit peptide, HPPDW336, NOS terminator; SEQ ID NO 1 |  |  | 0 | 0.5 | 0.25 | 1 | 0.25 | 0 | 1 | 1.5 | 0.33 | 0 | 0 | 0.25 |  |
| pCH94: plasmid carrying gene for tolerance to HPPD inhibitors: Arabidopsis histone promoter, TEV enhancer, optimized transit peptide, HPPDW336, NOS terminator; SEQ ID NO 2 |  |  | 0.67 | 1 | 2 | 1 |  |  | 1 | 1 | 0.33 | 0.67 | 0.33 | 0.25 | 1.5 |
